Assay results reported in patent publication US7008905B2, “Method of combating undesired plant growth on cereals” (BASF Aktiengesellschaft, priority 2000, dated 2006).

Assays:
Type in all cases: in vivo
wheat = test: Post-emergence test, tolerance in wheat; conditions: in vivo
Protocol: (§1) These acetone solutions are diluted with water and the resulting formulations applied at dosage levels equivalent of about 0.030 to 0.240 kg per hectare of test compound per pot. After spraying the plants are placed an greenhouse benches and are cared for in the usual manner, commensurate with conventional greenhouse practices. From 2 to 4 weeks after treatment, the seedling plants are examined and rated according to the rating system provided above. A rating 0 indicates growth as untreated control, a rating 100 indicates death.

Veronica persica = test: Pre-emergence test, weed control; conditions: 3 weeks after treatment, rating 0-100 (100=death), Table 1
Procedure, shortened: (§2)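 Using a 900 l/ha spray volume, test formulations are applied to newly sown soil at five rates from 15 to 240 g/ha. Each formulation is an acetone solution containing 0.4% w/w wetting agent, diluted with water; visual 0–100 ratings follow at three weeks.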

Apera spica-venti = test: Pre-emergence test, weed control; conditions: 3 weeks after treatment, rating 0-100 (100=death), Table 1
Procedure, shortened: as §2

Alopecurus myosuroides = test: Pre-emergence test, weed control; conditions: 3 weeks after treatment, rating 0-100 (100=death), Table 1
Procedure, shortened: as §2

Polygonum convolvulus [1] = test: Pre-emergence test, weed control; conditions: 3 weeks after treatment, rating 0-100 (100=death), Table 1
Procedure, shortened: as §2

Stellaria media = test: Pre-emergence test, weed control; conditions: 3 weeks after treatment, rating 0-100 (100=death), Table 1
Procedure, shortened: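 Herbicidal effect was scored visually on a 0–100 scale (100 = death, 0 = untreated-like) three weeks after treatment. Soil was horticultural loam sprayed just after sowing with aqueous-diluted acetone/0.4% TRITON X-155 formulations at 15–240 g a.i./ha (900 L/ha).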

Matricaria inodora = test: Pre-emergence test, weed control; conditions: 3 weeks after treatment, rating 0-100 (100=death), Table 1
Procedure, shortened: as §2

Galium aparine [2] = test: Pre-emergence test, weed control; conditions: 3 weeks after treatment, rating 0-100 (100=death), Table 1
Procedure, shortened: as §2

Poa annua = test: Pre-emergence test, weed control; conditions: 3 weeks after treatment, rating 0-100 (100=death), Table 1
Procedure, shortened: as §2

Lamium purpureum = test: Pre-emergence test, weed control; conditions: 3 weeks after treatment, rating 0-100 (100=death), Table 1
Procedure, shortened: as §2

Lolium perenne = test: Pre-emergence test, weed control; conditions: 3 weeks after treatment, rating 0-100 (100=death), Table 1
Procedure, shortened: as §2

Setaria viridis [3] = test: Pre-emergence test, weed control; conditions: 3 weeks after treatment, rating 0-100 (100=death), Table 1
Procedure, shortened: as §2

[4] = test system: Triticum aestivum variety “Kanzler”; test: Pre-emergence test, selectivity; conditions: 3 weeks after treatment, rating 0-100 (100=death), Table 2
Procedure, shortened: as §2

[5] = test system: Triticum aestivum variety “Monopol”; test: Pre-emergence test, selectivity; conditions: 3 weeks after treatment, rating 0-100 (100=death), Table 2
Procedure, shortened: as §2

[6] = test system: Hordeum vulgare variety “Mammut”; test: Pre-emergence test, selectivity; conditions: 3 weeks after treatment, rating 0-100 (100=death), Table 2
Procedure, shortened: as §2

HORVW = test: Pre-emergence test, selectivity; conditions: 3 weeks after treatment, rating 0-100 (100=death), Table 2
Procedure, shortened: as §2

Polygonum convolvulus [7] = test: Post-emergence test, weed control; conditions: 2–4 weeks after treatment, rating 0-100 (100=death), Table 5
Protocol: as §1

Galium aparine [8] = test: Post-emergence test, weed control; conditions: 2–4 weeks after treatment, rating 0-100 (100=death), Table 5
Protocol: as §1

VIOAR = test: Post-emergence test, weed control; conditions: 2–4 weeks after treatment, rating 0-100 (100=death), Table 5
Protocol: as §1

Setaria viridis [9] = test: Post-emergence test, weed control; conditions: 2–4 weeks after treatment, rating 0-100 (100=death), Table 5
Protocol: as §1

In the case of `Cc1nc(-c2ccc(C(F)(F)F)cc2)nc(Oc2cccc(C(F)(F)F)c2)c1C` [REF-2], the “maximum tolerated dose in wheat / dose at which sufficiently selective in wheat” value (wheat) was “similarly selective in wheat”, the “VERPE weed control rating” value (Veronica persica; 0.015 kg/ha) was 25 and the “VERPE weed control rating” value (Veronica persica; 0.030 kg/ha) was 99. The “VERPE weed control rating” value (Veronica persica; 0.060 kg/ha) was 100, the “VERPE weed control rating” value (Veronica persica; 0.120 kg/ha) was 100 and the “VERPE weed control rating” value (Veronica persica; 0.240 kg/ha) was 100. For the same compound, the “APESV weed control rating” value (Apera spica-venti; 0.015 kg/ha) was 80, the “APESV weed control rating” value (Apera spica-venti; 0.030 kg/ha) was 85 and the “APESV weed control rating” value (Apera spica-venti; 0.060 kg/ha) was 98. For the same compound, the “APESV weed control rating” value (Apera spica-venti; 0.120 kg/ha) was 100, the “APESV weed control rating” value (Apera spica-venti; 0.240 kg/ha) was 100 and the “ALOMY weed control rating” value (Alopecurus myosuroides; 0.015 kg/ha) was 0. For the same compound, the “ALOMY weed control rating” value (Alopecurus myosuroides; 0.030 kg/ha) was 5, the “ALOMY weed control rating” value (Alopecurus myosuroides; 0.060 kg/ha) was 15 and the “ALOMY weed control rating” value (Alopecurus myosuroides; 0.120 kg/ha) was 65. The “ALOMY weed control rating” value (Alopecurus myosuroides; 0.240 kg/ha) was 70, the “POLCO weed control rating” value (Polygonum convolvulus [1]; 0.015 kg/ha) was 0 and the “POLCO weed control rating” value (Polygonum convolvulus [1]; 0.030 kg/ha) was 0. For the same compound, the “POLCO weed control rating” value (Polygonum convolvulus [1]; 0.060 kg/ha) was 0, the “POLCO weed control rating” value (Polygonum convolvulus [1]; 0.120 kg/ha) was 30 and the “POLCO weed control rating” value (Polygonum convolvulus [1]; 0.240 kg/ha) was 80. For the same compound, the “STEME weed control rating” value (Stellaria media; 0.015 kg/ha) was 0, the “STEME weed control rating” value (Stellaria media; 0.060 kg/ha) was 20 and the “STEME weed control rating” value (Stellaria media; 0.120 kg/ha) was 97. The “STEME weed control rating” value (Stellaria media; 0.240 kg/ha) was 100, the “MATIN weed control rating” value (Matricaria inodora; 0.015 kg/ha) was 95 and the “MATIN weed control rating” value (Matricaria inodora; 0.030 kg/ha) was 98. For the same compound, the “MATIN weed control rating” value (Matricaria inodora; 0.060 kg/ha) was 98, the “MATIN weed control rating” value (Matricaria inodora; 0.120 kg/ha) was 99 and the “MATIN weed control rating” value (Matricaria inodora; 0.240 kg/ha) was 99. The “GALAP weed control rating” value (Galium aparine [2]; 0.015 kg/ha) was 0, the “GALAP weed control rating” value (Galium aparine [2]; 0.030 kg/ha) was 0 and the “GALAP weed control rating” value (Galium aparine [2]; 0.060 kg/ha) was 3. The “GALAP weed control rating” value (Galium aparine [2]; 0.120 kg/ha) was 5, the “GALAP weed control rating” value (Galium aparine [2]; 0.240 kg/ha) was 50 and the “POAAN weed control rating” value (Poa annua; 0.015 kg/ha) was 65. The “POAAN weed control rating” value (Poa annua; 0.030 kg/ha) was 95, the “POAAN weed control rating” value (Poa annua; 0.060 kg/ha) was 97 and the “POAAN weed control rating” value (Poa annua; 0.120 kg/ha) was 100. The “POAAN weed control rating” value (Poa annua; 0.240 kg/ha) was 100, the “LAMPU weed control rating” value (Lamium purpureum; 0.030 kg/ha) was 40 and the “LAMPU weed control rating” value (Lamium purpureum; 0.060 kg/ha) was 75. The “LAMPU weed control rating” value (Lamium purpureum; 0.120 kg/ha) was 98, the “LAMPU weed control rating” value (Lamium purpureum; 0.240 kg/ha) was 100 and the “LOLPE weed control rating” value (Lolium perenne; 0.015 kg/ha) was 5. For the same compound, the “LOLPE weed control rating” value (Lolium perenne; 0.030 kg/ha) was 30, the “LOLPE weed control rating” value (Lolium perenne; 0.060 kg/ha) was 60 and the “LOLPE weed control rating” value (Lolium perenne; 0.120 kg/ha) was 93. The “LOLPE weed control rating” value (Lolium perenne; 0.240 kg/ha) was 97, the “SETVI weed control rating” value (Setaria viridis [3]; 0.015 kg/ha) was 65 and the “SETVI weed control rating” value (Setaria viridis [3]; 0.060 kg/ha) was 97. The “SETVI weed control rating” value (Setaria viridis [3]; 0.120 kg/ha) was 100, the “SETVI weed control rating” value (Setaria viridis [3]; 0.240 kg/ha) was 100 and the “TRZAWK rating (Selectivity)” value ([4]; 0.030 kg/ha) was 1. For the same compound, the “TRZAWK rating (Selectivity)” value ([4]; 0.060 kg/ha) was 1, the “TRZAWK rating (Selectivity)” value ([4]; 0.120 kg/ha) was 1 and the “TRZAWK rating (Selectivity)” value ([4]; 0.240 kg/ha) was 5. For the same compound, the “TRZAWM rating (Selectivity)” value ([5]; 0.030 kg/ha) was 1, the “TRZAWM rating (Selectivity)” value ([5]; 0.060 kg/ha) was 1 and the “TRZAWM rating (Selectivity)” value ([5]; 0.120 kg/ha) was 2. The “TRZAWM rating (Selectivity)” value ([5]; 0.240 kg/ha) was 5, the “HORVWM rating (Selectivity)” value ([6]; 0.030 kg/ha) was 3 and the “HORVWM rating (Selectivity)” value ([6]; 0.060 kg/ha) was 5. The “HORVWM rating (Selectivity)” value ([6]; 0.120 kg/ha) was 18, the “HORVWM rating (Selectivity)” value ([6]; 0.240 kg/ha) was 25 and the “HORVW rating (Selectivity)” value (HORVW; 0.030 kg/ha) was 10. The “HORVW rating (Selectivity)” value (HORVW; 0.060 kg/ha) was 10, the “HORVW rating (Selectivity)” value (HORVW; 0.120 kg/ha) was 20 and the “HORVW rating (Selectivity)” value (HORVW; 0.240 kg/ha) was 30. The “POLCO weed control rating” value (Polygonum convolvulus [7]; 0.060 kg/ha) was 0, the “POLCO weed control rating” value (Polygonum convolvulus [7]; 0.120 kg/ha) was 25 and the “POLCO weed control rating” value (Polygonum convolvulus [7]; 0.240 kg/ha) was 40. For the same compound, the “GALAP weed control rating” value (Galium aparine [8]; 0.030 kg/ha) was 50, the “GALAP weed control rating” value (Galium aparine [8]; 0.060 kg/ha) was 80 and the “GALAP weed control rating” value (Galium aparine [8]; 0.120 kg/ha) was 85. The “GALAP weed control rating” value (Galium aparine [8]; 0.240 kg/ha) was 85, the “VIOAR weed control rating” value (VIOAR; 0.030 kg/ha) was 75 and the “VIOAR weed control rating” value (VIOAR; 0.060 kg/ha) was 90. The “VIOAR weed control rating” value (VIOAR; 0.120 kg/ha) was 90, the “VIOAR weed control rating” value (VIOAR; 0.240 kg/ha) was 95 and the “SETVI weed control rating” value (Setaria viridis [9]; 0.030 kg/ha) was 30. For the same compound, the “SETVI weed control rating” value (Setaria viridis [9]; 0.060 kg/ha) was 55, the “SETVI weed control rating” value (Setaria viridis [9]; 0.120 kg/ha) was 96 and the “SETVI weed control rating” value (Setaria viridis [9]; 0.240 kg/ha) was 100.
